Experimental data: PubChem BioAssay AID1996
Converted amounts (≈) assume the structure as drawn.

Conditions: buffer; pH 7.4; 200.0 µM

Row | solubility kinetic | Structure (SMILES)
1 | 47.5 µg/mL (≈ 150 µM) | O=C(c1ccc2ccccc2c1)N1CCN(c2ccccn2)CC1
2 | 27.9 µg/mL (≈ 113 µM) | CC1CN(Cc2cnc(Cl)s2)CC(C)O1 (stereo not given)
3 | < 0.2 µg/mL | O=[N+]([O-])c1cccc2nc(-c3ccccc3)c(-c3ccccc3)nc12
4 | > 38 µg/mL | O=C(NCc1ccco1)c1ccc2nccnc2c1
5 | 4.1 µg/mL (≈ 11.1 µM) | O=C(COC(=O)c1cc(=O)[nH]c2ccccc12)NCc1ccccc1Cl
6 | 22.5 µg/mL (≈ 117 µM) | CCCNc1ncnc2onc(C)c12
7 | 10.3 µg/mL (≈ 30.7 µM) | COc1ccc(C(=O)COC(=O)c2ccc(Cl)nc2)cc1OC
8 | > 46.1 µg/mL | CNC(=O)c1cc(C(=O)c2ccccc2Br)c[nH]1
9 | 11.8 µg/mL (≈ 32.6 µM) | CC1=C(C(=O)OC(C)C)C(c2ccc(C)o2)C(C(=O)OC(C)C)=C(C)N1
10 | > 39.8 µg/mL | COc1ccc(NC(=S)N2CCN(C)CC2)cc1
11 | 1.1 µg/mL (≈ 3.28 µM) | CN(C)/C=N/c1ncc(C(=O)c2ccc(-c3ccccc3)cc2)s1
12 | 19 µg/mL (≈ 56.7 µM) | CCOC(=O)C1CCN(C(=O)c2cc3cc(Cl)ccc3[nH]2)CC1
13 | > 44.9 µg/mL | Cc1ccc(CNC(=O)COC(=O)c2cnc(C)cn2)cc1
14 | > 34.7 µg/mL | O=C(N/N=C/c1cccnc1)c1cccs1
15 | 30.8 µg/mL (≈ 113 µM) | COc1cccc(N2CCN(Cc3ccco3)CC2)c1
16 | 10.1 µg/mL (≈ 29.6 µM) | COc1ccc(C(=O)OCC(=O)NC(C)CCc2ccccc2)cc1 (stereo not given)
17 | 2 µg/mL (≈ 7.84 µM) | C=CCNC(=O)NC(=O)c1csc([N+](=O)[O-])c1
18 | 12 µg/mL (≈ 36.4 µM) | CSc1nc(-c2ccccc2)nc(N2CCOCC2)c1C(C)=O
19 | > 52.8 µg/mL | CSCC[C@H](NC(=O)Nc1ccc(OC(F)(F)F)cc1)C(=O)O
20 | > 42.4 µg/mL | CCN(CC(=O)NC1CC1)S(=O)(=O)c1ccccc1
21 | 38.8 µg/mL (≈ 149 µM) | CCCN1CCC(NCC(C)c2ccccc2)CC1 (stereo not given)
22 | 47.9 µg/mL (≈ 148 µM) | O=C(COC(=O)Cc1ccccc1F)Nc1ccc(F)cc1F
23 | > 72.1 µg/mL | CC1(C)CC(NC(=O)c2cc(S(=O)(=O)N3CCOCC3)ccc2Cl)CC(C)(C)N1.Cl
24 | > 29.1 µg/mL | O=C(NCC1CCCO1)c1ccc[nH]1 (stereo not given)

Row | solubility kinetic | Structure (SMILES)
25 | < 0.7 µg/mL | CCOC(=O)c1ccccc1NC(=O)c1cc2ccccc2o1
26 | 13 µg/mL (≈ 26.9 µM) | CN(c1ccccc1)S(=O)(=O)c1cccc(NC(=O)CCNC(=O)c2ccc([N+](=O)[O-])cc2)c1
27 | < 0.4 µg/mL | O=C(Nc1ccccc1O)c1ccc2c(c1)C(=O)N(c1ccccc1)C2=O
28 | > 31.9 µg/mL | Cc1cc(Cl)ccc1NC(=O)/C=N/O
29 | 7.1 µg/mL (≈ 29.9 µM) | Cc1cc(N2Cc3ccccc3C2)ccc1C=O
30 | 9.8 µg/mL (≈ 28.7 µM) | O=C(Cc1ccccc1)Nc1cc([N+](=O)[O-])ccc1N1CCOCC1
31 | 17.4 µg/mL (≈ 61.6 µM) | Cc1ccc(C)c(CN2CCN(c3ncccn3)CC2)c1
32 | > 44.9 µg/mL | COc1ccc(C(=O)NCCCc2ccccc2)cc1OC
33 | < 0.3 µg/mL | Cc1cc(N2CCCCC2)nc2c(C)cccc12
34 | 30.7 µg/mL (≈ 108 µM) | COc1ccccc1N1C(=O)C2C3C=CC(CC3)C2C1=O (stereo not given)
35 | > 44.2 µg/mL | O=C(O)c1c(NC(=O)N2CCCC2)sc2c1CCCC2
36 | > 50.9 µg/mL | CSc1ccc(CN(C)C(=O)c2cc(=O)c3ccccc3o2)cc1
37 | > 56.6 µg/mL | COC(=O)C1CCN(C(=O)COC(=O)/C=C/c2ccc(O)c(OC)c2)CC1
38 | < 0.4 µg/mL | COc1ccc(Cn2c(C(C)C)nc3sc4ccccc4c(=O)c3c2=O)cc1
39 | 3.2 µg/mL (≈ 8.22 µM) | CN1CC(=O)N2[C@H](c3ccc4c(c3)OCO4)c3[nH]c4ccccc4c3C[C@@H]2C1=O
40 | 1.9 µg/mL (≈ 7.84 µM) | Cc1cccc(NC(=O)Nc2cnccn2)c1C
41 | > 57 µg/mL | Cc1csc(=O)n1CCC(=O)OCc1nnc(-c2ccccc2Cl)o1
42 | 3.2 µg/mL (≈ 12.9 µM) | CCOC(=O)/C(C#N)=C/Nc1cc(F)ccc1C
43 | 20.5 µg/mL (≈ 65.8 µM) | COc1ccccc1CNC(=O)COc1ccc2c(c1)CCC2
44 | < 0.4 µg/mL | COC(=O)c1c(NC(C)=O)sc(C(=O)Nc2ccccc2F)c1C
45 | > 30.9 µg/mL | c1ccc(CCNC2=NCCS2)cc1
46 | 0.8 µg/mL (≈ 3.16 µM) | CC(=O)c1sc(-c2ccc(F)cc2F)nc1C
47 | > 55.3 µg/mL | Cc1nn(CC(=O)NCCC2=CCCCC2)c(C)c1S(=O)(=O)N(C)C
48 | 14.3 µg/mL (≈ 24.6 µM) | O=C(CN1C(=O)/C(=C2/SC(=S)N(CCS(=O)(=O)O)C2=O)c2ccccc21)Nc1cccc(Br)c1

Row | solubility kinetic | Structure (SMILES)
49 | 45.5 µg/mL (≈ 135 µM) | CCOc1cc(C#N)ccc1OCC(=O)N1CCc2ccccc2C1
50 | > 49 µg/mL | COc1ccc(OC)c(S(=O)(=O)N2CCN3CCCC3C2)c1 (stereo not given)
51 | > 39.6 µg/mL | CCCCc1ccc(NC(=O)N[C@@H](C)C(=O)O)cc1
52 | 48.7 µg/mL (≈ 144 µM) | C=CCSc1nc2c(c(=O)[nH]1)C(c1ccccc1)C(C#N)=C(N)O2 (stereo not given)
53 | 34.8 µg/mL (≈ 100 µM) | Nc1ccc(C(=O)Nc2cccc(NC(=O)c3ccc(N)cc3)c2)cc1
54 | 1.9 µg/mL (≈ 6.89 µM) | Cc1cc(Cl)ccc1Oc1ncnc2onc(C)c12
55 | > 40.2 µg/mL | CC1(NC(=O)Nc2ccccc2)CCS(=O)(=O)C1 (stereo not given)
56 | 33.6 µg/mL (≈ 118 µM) | CCCNC(=O)N1c2ccccc2Sc2ccccc21
57 | 25.6 µg/mL (≈ 149 µM) | O=C(c1ccccc1)c1cnc[nH]1
58 | > 45.8 µg/mL | O=c1[nH]c2ccc(S(=O)(=O)Nc3ccccc3O)cc2[nH]1
59 | 1 µg/mL (≈ 3.17 µM) | COc1ccccc1CCNC(=O)c1csc2c1CCCC2
60 | 50.7 µg/mL | COS(=O)(=O)[O-].Cn1c(Cc2ccccc2)[n+](C)c2ccccc21
61 | 5 µg/mL (≈ 13.8 µM) | COc1ccccc1NS(=O)(=O)c1cc(N)ccc1N1CCOCC1
62 | 29.1 µg/mL (≈ 97.7 µM) | CC1CCCCN1CC(O)COCc1ccc(Cl)cc1 (stereo not given)
63 | < 0.3 µg/mL | CCOc1ccc(NC(=O)c2ccc(CC)s2)c([N+](=O)[O-])c1
64 | > 34.7 µg/mL | CCc1ccc(NC(=O)Nc2ccon2)cc1
65 | 8.6 µg/mL (≈ 28.7 µM) | CCOc1cc(C2NC(=O)c3ccccc3O2)ccc1OC (stereo not given)
66 | > 40.4 µg/mL | O=C(COc1ccccc1)NC1CCS(=O)(=O)C1 (stereo not given)
67 | > 51.6 µg/mL | CC(=O)N(c1cccc(Br)c1)c1nc(C)cc(C)c1C#N
68 | 57.6 µg/mL (≈ 149 µM) | COC(=O)/C=C1\N/C(=N\c2nc(C)cc(C)n2)N(c2ccc(Cl)cc2)C1=O
69 | 7.3 µg/mL (≈ 23.8 µM) | CCOC(=O)c1sc(NC(=O)c2ccc(=O)[nH]c2)nc1C
70 | 4.3 µg/mL (≈ 16.4 µM) | COc1ccc([N+](=O)[O-])cc1NC(=O)c1ccco1
71 | 3.7 µg/mL (≈ 12.3 µM) | O=C(NCc1cccnc1)C(=O)Nc1ccc([N+](=O)[O-])cc1
72 | > 49.4 µg/mL | CCOc1ccc(CCNC(=O)/C=C/c2ccco2)cc1OCC

Row | solubility kinetic | Structure (SMILES)
73 | 40.4 µg/mL (≈ 117 µM) | NC(CCCCCP(=O)(c1ccccc1)c1ccccc1)C(=O)O (stereo not given)
74 | 22 µg/mL (≈ 77.9 µM) | COc1ccc2oc(C(=O)Nc3ccccn3)c(C)c2c1
75 | 32.4 µg/mL (≈ 102 µM) | CCOC(=O)C1CCN(C(=O)c2cc3cc(F)ccc3[nH]2)CC1
76 | 1.7 µg/mL (≈ 4.85 µM) | Cc1ccnc(NS(=O)(=O)c2cc(C(F)(F)F)ccc2Cl)c1
77 | 39.6 µg/mL (≈ 141 µM) | CC1CCCCN1S(=O)(=O)c1cccc2nonc12 (stereo not given)
78 | 12.9 µg/mL (≈ 36.2 µM) | Cc1ccc(N2C(=O)N(c3ccc(C)cc3)C3CS(=O)(=O)CC32)cc1 (stereo not given)
79 | 14.3 µg/mL (≈ 41.5 µM) | CCOc1ccc(C(=O)N2CCN(c3cccc(Cl)c3)CC2)cc1
80 | 8.1 µg/mL (≈ 29.6 µM) | COc1ccc(C(=O)NC(C)C2CC3CCC2C3)cc1 (stereo not given)
81 | > 30.2 µg/mL | CC(C)(C)OC(=O)N1CCC[C@@H]1CO
82 | > 43.5 µg/mL | COc1ccc(CNC/C=C/c2ccccc2)cc1.Cl
83 | 39.7 µg/mL (≈ 125 µM) | O=C(NCc1ccco1)C1CC(=O)N(c2cccc(Cl)c2)C1 (stereo not given)
84 | 16.7 µg/mL (≈ 56.3 µM) | Fc1ccc(NC(=S)Nc2cccc3ccccc23)cc1
85 | 41.6 µg/mL (≈ 134 µM) | COc1ccccc1OCC(=O)NC1CCCc2ccccc21 (stereo not given)
86 | > 48.4 µg/mL | Cc1ccc2nc(NS(=O)(=O)c3cn(C)nc3C)sc2c1
87 | 1.4 µg/mL (≈ 4.21 µM) | CCOc1ccc(NC(=O)c2c3c(nc4ccccc24)CCC3)cc1
88 | < 0.2 µg/mL | Brc1cccc(Nc2nc(-c3cccnc3)cs2)c1
89 | 27.6 µg/mL (≈ 82.8 µM) | CCOCCCNC(=O)c1cc2c(s1)-c1ccccc1SC2
90 | > 39.7 µg/mL | C/C(=N\Nc1nccnc1Cl)c1ccc(F)cc1
91 | 34.7 µg/mL (≈ 109 µM) | CC1CC(C)CN(C(=O)C2CC(=O)N(c3ccc(F)cc3)C2)C1 (stereo not given)
92 | < 0.2 µg/mL | CC(=O)Nc1ccc(/C=C/c2noc(-c3ccccc3O)n2)cc1
93 | > 36.3 µg/mL | CC1CCc2cc(F)ccc2N1C(=O)CCl (stereo not given)
94 | > 43.1 µg/mL | O=C1c2ccccc2C(=O)N1S(=O)(=O)c1ccccc1
95 | > 42.5 µg/mL | COc1ccc(CCNc2ncccc2C#N)cc1OC
96 | 30.6 µg/mL (≈ 113 µM) | Cc1cc(OCc2nc3ccccc3s2)ccc1N

Row | solubility kinetic | Structure (SMILES)
97 | > 38.7 µg/mL | O=C(Nc1ncccc1O)c1ccc2c(c1)OCO2
98 | 2.1 µg/mL (≈ 6.9 µM) | COc1ccc(CC(=O)Nc2nc(C(C)(C)C)cs2)cc1
99 | < 0.6 µg/mL | Cc1cc(C2CC(=O)Nc3ccccc3S2)c(C)s1 (stereo not given)
100 | 10.3 µg/mL (≈ 31.1 µM) | CCCCNC(=S)N1CCn2cccc2C1c1ccc(F)cc1 (stereo not given)
101 | > 51.5 µg/mL | CCSCc1nnc(SCC(=O)Nc2nccs2)n1CC
102 | < 0.3 µg/mL | COc1ccc(Cl)cc1NC(=O)CNc1ccccc1N1CCOCC1
103 | > 48.8 µg/mL | C=CCOc1c(CNc2ccc3[nH]c(=O)[nH]c3c2)cccc1OC
104 | 15.6 µg/mL (≈ 48.3 µM) | COc1cc(N=c2ssnc2Cl)c(OC)cc1Cl
105 | > 40.7 µg/mL | N/C(=N\OC(=O)COc1ccccc1)c1ccncc1
106 | 33.3 µg/mL (≈ 125 µM) | CC1CC(C)CN(C(=O)c2ccc3ccccc3c2)C1 (stereo not given)
107 | 44.7 µg/mL (≈ 140 µM) | COc1ccc(OC)c(NC(=O)CCNC(=O)c2ccco2)c1
108 | > 49.1 µg/mL | COc1ccc(NC(=O)C(CC(=O)O)C(C)c2ccccc2)cc1 (stereo not given)
109 | > 29.6 µg/mL | CCOC(=O)c1c(O)cc(C)[nH]c1=O
110 | 14.1 µg/mL (≈ 55.7 µM) | Cc1cc2nc(-c3ccc(=O)[nH]c3)n(C)c2cc1C
111 | 46.4 µg/mL (≈ 140 µM) | NS(=O)(=O)c1ccc(CCNC(=O)CCc2ccccc2)cc1
112 | 4.9 µg/mL (≈ 14.7 µM) | O=C(NC(=S)NC(CO)Cc1ccccc1)c1ccc(F)cc1 (stereo not given)
113 | > 39.2 µg/mL | Cc1cc(=O)oc(C)c1C(=O)Nc1cccc(F)c1
114 | > 56.8 µg/mL | COC(c1ccccc1)(c1ccccc1)C(Oc1nc(C)cc(C)n1)C(=O)O (stereo not given)
115 | 6.9 µg/mL (≈ 22.3 µM) | Cc1ccccc1Cn1c(C)nc2ccc([N+](=O)[O-])cc2c1=O
116 | 9.2 µg/mL (≈ 20.5 µM) | COc1ccc(CNC(=O)COC(=O)c2ccc(S(=O)(=O)N3CCOCC3)cc2)cc1
117 | > 61 µg/mL | CN(C)CCOC(c1ccc(Cl)cc1)c1ccccn1.O=C(O)/C=C/C(=O)O (stereo not given)
118 | 42.8 µg/mL (≈ 133 µM) | Cc1cc2oc(=O)sc2cc1NS(=O)(=O)c1ccccc1

Row | Structure (SMILES) | solubility kinetic
119 | COc1ccc(N2CCN(Cc3nc4ccccc4[nH]3)CC2)cc1 | > 48.4 µg/mL
120 | Cn1cc(C(=O)OCC(=O)NC2(C#N)CCCC2)c2ccccc21 | > 48.8 µg/mL
